The values below come from patent US20240376148A1, “MEDICAMENT FOR INHIBITING DIETARY OBESITY AND POLYPEPTIDE USED THEREFOR” (INSTITUTE OF ZOOLOGY, CHINESE ACADEMY OF SCIENCES, priority 2022, published 2024).

Assay [1] can be described thus: SPF mice feeding experiment (high-fat diet). The class given is in vivo, C57/B16J mice. The note with it: for subcutaneous and visceral fat weight (inguinal subcutaneous, epididymis, perirenal) vs HFD group: 8 weeks; for weekly feed intake vs control HFD group: after 3-4 weeks; for body weight decrease compared with the HFD group: intragastric 0.75 mg-3 mg/Kg once/day, after 8 weeks. As to the method: C57/B16J mice were used in the SPF mice experiment. At the beginning of the experiment, C57/B16J mice were 4 weeks old, and each weighed 15±1 g. They were raised in a room with suitable temperature and humidity control, and the light/dark cycle was 12 hours, free diet and drinking water, and fed with standard laboratory feed (also known as growth and reproduction feed, item number SPFSLFZ003, product of SPF (Beijing) Experimental Animal Technology Co., Ltd.). After one week of adaptation, they were randomly assigned to a cage, 4-6 mice per cage.
A total of 12 treatments were set up, each with 2 cages of C57/B16J mice, and each treatment was subjected to different feeding treatments, specifically as follows:
NC group (i.e. normal diet group): fed with standard laboratory feed (also known as growth and reproduction feed, SPFSLFZ003), free diet and drinking water, each intragastrically administrated with 0.2 ml solvent daily for 8 weeks.
HFD group (i.e. high-fat diet group): fed with high-fat diet, the high-fat diet used was rodent feed (containing 60% fat, D12492, formula reference Le Roy, T., et al. Dysosmobacter welbionis is a newly isolated human commensal bacterium preventing diet-induced obesity and metabolic disorders in mice. Gut (2021).), free diet and drinking water, each intragastrically administrated with 0.2 ml solvent daily for 8 weeks.
(§1) D1 group (i.e. high-fat diet+D1 intragastric administration group): fed with high-fat diet, free diet and drinking water. Intragastrically administrated with synthetic D1, 0.75 mg-3 mg/Kg body weight, 0.2 ml, once/day for 8 weeks.
(§2) D2 group (i.e. high-fat diet+D2 intragastric administration group): fed with high-fat diet, free diet and drinking water. Intragastrically administrated with synthetic D2, 0.75 mg-3 mg/Kg body weight, 0.2 ml, once/day for 8 weeks.
D3 group (i.e. high-fat diet+D3 intragastric administration group): fed with high-fat diet, free diet and drinking water. Intragastrically administrated with synthetic D3, 0.75 mg-3 mg/Kg body weight, 0.2 ml, once/day for 8 weeks.
D4 group (i.e. high-fat diet+D4 intragastric administration group): fed with high-fat diet, free diet and drinking water. Intragastrically administrated with synthetic D4, 0.75 mg-3 mg/Kg body weight, 0.2 ml, once/day for 8 weeks.
D5 group (i.e. high-fat diet+D5 intragastric administration group): fed with high-fat diet, free diet and drinking water. Intragastrically administrated with synthetic D5, 0.75 mg-3 mg/Kg body weight, 0.2 ml, once/day for 8 weeks.
D6 group (i.e. high-fat diet+D6 intragastric administration group): fed with high-fat diet, free diet and drinking water. Intragastrically administrated with synthetic D6, 0.75 mg-3 mg/Kg body weight, 0.2 ml, once/day for 8 weeks.
D7 group (i.e. high-fat diet+D7 intragastric administration group): fed with high-fat diet, free diet and drinking water. Intragastrically administrated with synthetic D7, 0.75 mg-3 mg/Kg body weight, 0.2 ml, once/day for 8 weeks.
D8 group (i.e. high-fat diet+D8 intragastric administration group): fed with high-fat diet, free diet and drinking water. Intragastrically administrated with synthetic D8, 0.75 mg-3 mg/Kg body weight, 0.2 ml, once/day for 8 weeks.
D9 group (i.e. high-fat diet+D9 intragastric administration group): fed with high-fat diet, free diet and drinking water. Intragastrically administrated with synthetic D9, 0.75 mg-3 mg/Kg body weight, 0.2 ml, once/day for 8 weeks.
D10 group (i.e. high-fat diet+D10 intragastric administration group): fed with high-fat diet, free diet and drinking water. Intragastrically administrated with synthetic D10, 0.75 mg-3 mg/Kg body weight, 0.2 ml, once/day for 8 weeks.
The feed intake was tracked every week. After the experiment, the mice were weighed and photographs were taken to compare the body size of the mice. After that, the mice were killed by cervical dislocation. […]

For assay [2], the system named is A. muciniphila. The experiment in a line: qPCR of relative abundance of A. muciniphila in intestinal flora of SPF mice. It counts as in vivo. The note with it: p<0.05. As to the method:
In order to verify the changes in the relative abundance of A.muciniphila in the intestinal flora of mice fed with other HD, qPCR experiments were performed on the changes of intestinal flora in mice. Faecal bacterial DNA was extracted from the faeces of mice in the NC, HFD, D1, D2, D3, D5, D7, D8, D9 and D10 groups collected in the pre-SPF mice experiments and then the relative abundance of A. muciniphila was determined using qPCR.

Assay [3] in a line: Short-term feed intake experiment of SPF mice. The class given is in vivo, C57/B16J mice. The note with it: after 8 weeks of treatment, starved one day then fed. As to the method: A total of 2 treatments were set up, each with one cage of C57/B16J mice, and the high-fat diet used was rodent feed (containing 60 kcal % fat, D12492), and each treatment was subjected to different feeding treatments, specifically as follows:
HFD group (i.e. high-fat diet group): fed with high-fat diet.
as §1, §2
D3 group (i.e. high-fat diet+D3 intragastric administration group): fed with high-fat diet, free diet and drinking water. […]
According to the above treatment, it was carried out for 8 weeks, and then within 1 week, the mice were starved for one day and then given feed, and the feed intake of the animals in the following day was recorded. That is, food weights were recorded every other day (4 separate measurements) and the average daily intake was determined for each 2-day period and calculated for each individual during the one-week measurement period. […]

For assay [4] the following is noted: cited from earlier work.
The mark [5] stands for this setting: Phase 3, overweight or obese adults, subcutaneous 2.4 mg/week.

For RTCYCRTGR [D9], in assay [1], the “subcutaneous and visceral fat weight (inguinal subcutaneous, epididymis, perirenal) vs HFD group” value is recorded as “significantly lower than that of the HFD group”; the “weekly feed intake vs control HFD group” value is “significant difference in feed intake”; the “body weight decrease compared with the HFD group” value (shortened to “body weight decrease”) is on record as 11.09%. Further, the “relative abundance of A. muciniphila in the intestinal flora by qPCR” value (“relative abundance of A. muciniphila” below) in assay [2] was “significantly increased”.

GTRYCRTGR [D10]: in assay [1], the “subcutaneous and visceral fat weight (inguinal subcutaneous, epididymis, perirenal) vs HFD group” value is reported as “significantly lower than that of the HFD group”; the “weekly feed intake vs control HFD group” value was “significant difference in feed intake”; the “body weight decrease” value came out at 11.06%. Also, in assay [2], the “relative abundance of A. muciniphila” value is listed as “significantly increased”.

With ATCYRRTGR [D4], the “short-term feed intake vs HFD group” value in assay [3] is recorded as “no significant effect”. In addition, in assay [1], the “weekly feed intake vs control HFD group” value is “no significant effect” and the “body weight decrease” value is recorded as 3.55%.

On to `CCCCCCCCCCC[C@@H](C[C@@H]1OC(=O)[C@H]1CCCCCC)OC(=O)[C@H](CC(C)C)NC=O` [orlistat, Orlistat], for which the body weight lost in assay [4] (obese patients, within 12 months) was 2.9 to 3.4 kg.

On to RTRYKRTGR [D1], for which, in assay [1], the “subcutaneous and visceral fat weight (inguinal subcutaneous, epididymis, perirenal) vs HFD group” value is given as “significantly lower than that of the HFD group”; the “weekly feed intake vs control HFD group” value is given as “significant difference in feed intake”; the “body weight decrease” value stood at 11.62%. For the same compound, the “relative abundance of A. muciniphila” value in assay [2] was “significantly increased”.

On to GTCYKRTGR [D2], for which, in assay [1], the “subcutaneous and visceral fat weight (inguinal subcutaneous, epididymis, perirenal) vs HFD group” value is listed as “significantly lower than that of the HFD group”; the “weekly feed intake vs control HFD group” value was “significant difference in feed intake”; the “body weight decrease” value is 9.45%. Further, the “relative abundance of A. muciniphila” value in assay [2] is reported as “significantly increased”.

With RTCYKRTGR [D5], in assay [1], the “subcutaneous and visceral fat weight (inguinal subcutaneous, epididymis, perirenal) vs HFD group” value is “significantly lower than that of the HFD group”; the “weekly feed intake vs control HFD group” value is “significant difference in feed intake”; the “body weight decrease” value is listed as 11.8%. In assay [2], the “relative abundance of A. muciniphila” value is listed as “significantly increased”.

On to GTCYCRTGR [D7], for which, in assay [1], the “subcutaneous and visceral fat weight (inguinal subcutaneous, epididymis, perirenal) vs HFD group” value is “significantly lower than that of the HFD group”; the “weekly feed intake vs control HFD group” value is “significant difference in feed intake”; the “body weight decrease” value amounted to 8.08%. Further, the “relative abundance of A. muciniphila” value in assay [2] is recorded as “significantly increased”.

In the case of semaglutide, in assay [4] (setting [5]), the average weight lost is on record as 15.3 kg; the “average weight lost, of initial body weight” value is reported as 14.9%; the “mean body mass index (BMI) drop” value is 5.54.

As for GTRYKRTGR [D8], in assay [1], the “subcutaneous and visceral fat weight (inguinal subcutaneous, epididymis, perirenal) vs HFD group” value is reported as “significantly lower than that of the HFD group”; the “weekly feed intake vs control HFD group” value was “significant difference in feed intake”; the “body weight decrease” value turned out to be 10.07%. Moreover, the “relative abundance of A. muciniphila” value in assay [2] is recorded as “significantly increased”.

Take ATRYCRTGR [D6]: the “short-term feed intake vs HFD group” value in assay [3] was “no significant effect”. Moreover, in assay [1], the “weekly feed intake vs control HFD group” value is given as “no significant effect” and the “body weight decrease” value is listed as 3.78%.

As for `C[C@H]1CNCCc2ccc(Cl)cc21` [Lorcaserin], the “additional weight lost per year” value in assay [4] (obese subjects during the medication period) was 3.2 to 3.6 kg.
